From patent US20240174727A1, “LONG-ACTING NATRIURETIC PEPTIDES AND USES THEREOF” (Eli Lilly and Company, priority 2022, published 2024)
Numbered stars: 1 amine (or outer) side, 2 acyl side, 3 side chain; on linkers, the order of the positions; unused ones are H or OH. Bridge positions count the residues as written; N and C are the ends. Square brackets hold non-standard residues; d marks the D form. * marks the point of attachment. PEG24 = NCCOCCOCCOCCOCCOCCOCCOCCOCCOCCOCCOCCOCCOCCOCCOCCOCCOCCOCCOCCOCCOCCOCCOCCOCCC(=O)O; C20 diacid = O=C(O)CCCCCCCCCCCCCCCCCCC(=O)*; γGlu = O=C(O)[C@H](CCC(=O)[*:2])N[*:1]; 4Pal = N[C@@H](Cc1ccncc1)C(=O)O; CH2 = C([*:1])[*:2]

Columns and labels:
[1] = test system: plasma cGMP; experiment: In vivo monkey studies, plasma cGMP ELISA; set-up: species or system male cynomolgus monkeys; conditions: for Net cGMP (nM) Change from Baseline 0.083 h / Net cGMP (nM) Change from Baseline 0.25 h / Net cGMP (nM) Change from Baseline 0.5 h / Net cGMP (nM) Change from Baseline 1 h / Net cGMP (nM) Change from Baseline 2 h / Net cGMP (nM) Change from Baseline 4 h / Net cGMP (nM) Change from Baseline 8 h / Net cGMP (nM) Change from Baseline 12 h / Net cGMP (nM) Change from Baseline 24 h / Net cGMP (nM) Change from Baseline 36 h / Net cGMP (nM) Change from Baseline 48 h / Net cGMP (nM) Change from Baseline 72 h / Net cGMP (nM) Change from Baseline 96 h / Net cGMP (nM) Change from Baseline 120 h / Net cGMP (nM) Change from Baseline 144 h / Net cGMP (nM) Change from Baseline 168 h: dose 100 nmol/kg, monkey plasma; for Net cGMP (nM) Change from Baseline 0.083 h: 0.083 h postdose; for Net cGMP (nM) Change from Baseline 0.25 h: 0.25 h postdose; for Net cGMP (nM) Change from Baseline 0.5 h: 0.5 h postdose; for Net cGMP (nM) Change from Baseline 1 h: 1 h postdose; for Net cGMP (nM) Change from Baseline 2 h: 2 h postdose; for Net cGMP (nM) Change from Baseline 4 h: 4 h postdose; for Net cGMP (nM) Change from Baseline 8 h: 8 h postdose; for Net cGMP (nM) Change from Baseline 12 h: 12 h postdose; for Net cGMP (nM) Change from Baseline 24 h: 24 h postdose; for Net cGMP (nM) Change from Baseline 36 h: 36 h postdose; for Net cGMP (nM) Change from Baseline 48 h: 48 h postdose; for Net cGMP (nM) Change from Baseline 72 h: 72 h postdose; for Net cGMP (nM) Change from Baseline 96 h: 96 h postdose; for Net cGMP (nM) Change from Baseline 120 h: 120 h postdose; for Net cGMP (nM) Change from Baseline 144 h: 144 h postdose; for Net cGMP (nM) Change from Baseline 168 h: 168 h postdose; for net cGMP levels (result in words): monkeys, single SC dose, plasma
Outline: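 Net plasma cGMP change (nM) relative to each animal's own predose sample, after a single subcutaneous dose to male cynomolgus monkeys. Acetylated plasma (1:20) assayed by competitive cGMP ELISA, pNpp read at 405 nm, quantified against a 4-parameter standard curve.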

[2] = Pharmacokinetics in male Sprague Dawley rats; format: in vivo; conditions: rat, sc, mean, single subcutaneous administration of 200 nMol/kg, plasma; for half-life: read-out: t½ (converted)
Procedure: The pharmacokinetics of the exemplary analogs are evaluated following a single subcutaneous administration of […] to male Sprague Dawley rats. Blood samples are collected over 120 hours, and resulting individual plasma concentrations are used to calculate pharmacokinetic parameters. Peptide plasma (K3 EDTA) concentrations are determined using a qualified LC/MS method that measured the intact mass of the ANP polypeptide. Each peptide and an analog as an internal standard are extracted from 100% specie specified plasma using methanol with 0.1% formic acid. A Thermo Q-Exactive, High Resolution Instrument, and a Thermo Easy Spray PepMap are combined for LC/MS detection.

Compound | Net cGMP (nM) Change from Baseline 0.083 h [1] [nM] | Net cGMP (nM) Change from Baseline 0.25 h [1] [nM] | Net cGMP (nM) Change from Baseline 0.5 h [1] [nM] | Net cGMP (nM) Change from Baseline 1 h [1] [nM] | Net cGMP (nM) Change from Baseline 2 h [1] [nM] | Net cGMP (nM) Change from Baseline 4 h [1] [nM] | Net cGMP (nM) Change from Baseline 8 h [1] [nM] | Net cGMP (nM) Change from Baseline 12 h [1] [nM] | Net cGMP (nM) Change from Baseline 24 h [1] [nM] | Net cGMP (nM) Change from Baseline 36 h [1] [nM] | Net cGMP (nM) Change from Baseline 48 h [1] [nM] | Net cGMP (nM) Change from Baseline 72 h [1] [nM] | Net cGMP (nM) Change from Baseline 96 h [1] [nM] | Net cGMP (nM) Change from Baseline 120 h [1] [nM] | Net cGMP (nM) Change from Baseline 144 h [1] [nM] | Net cGMP (nM) Change from Baseline 168 h [1] [nM] | net cGMP levels (result in words) [1] | CL/F [2] [mL/min/kg] | half-life [2] [h]
{C20 diacid-γGlu}-EKEKEKG[PEG24]S[4Pal]RRSSCFGGRIDRIGHQSGLGCPSFRHGGPSSGAPPPS-NH2 (linker 15-31 via CH2) [Example 61] | 4.41 | 24.85 | 27.32 | 28.35 | 25.21 | 28.38 | 33.73 | 23.51 | 27.96 | 24.75 | 11.81 | 14.82 | 20.25 | 12.15 | 18 | 11.81 | increased net cGMP levels | 1.08 | 6
{C20 diacid-γGlu}-EKEKEKGS[4Pal]RRSSCFGGRIGRIGHQSGLGCPSFRHGGPSSGAPPPS-NH2 (disulfide 14-30) [Example 29] | 2.13 | 3.52 | 9.03 | 10.14 | 15.28 | 17.75 | 26.8 | 28.52 | 31.75 | 32.52 | 21.75 | 12.46 | 12.31 | 8.52 | 8.28 | 4.1 | increased net cGMP levels | 0.545 | 12
CC[C@H](C)[C@@H]1NC(=O)[C@H](CCCNC(=N)N)NC(=O)[C@H](CC(=O)O)NC(=O)[C@H]([C@@H](C)CC)NC(=O)[C@H](CCCNC(=N)N)NC(=O)CNC(=O)CNC(=O)[C@H](Cc2ccccc2)NC(=O)[C@@H](NC(=O)[C@H](CO)NC(=O)[C@H](CO)NC(=O)[C@H](CCCNC(=N)N)NC(=O)CCNC(=O)[C@H](CCCCN)NC(=O)[C@H](CCC(=O)O)NC(=O)CNC(=O)[C@H](CCCCN)NC(=O)[C@H](CCC(=O)O)NC(=O)[C@H](CCCCN)NC(=O)[C@H](CCC(=O)O)NC(=O)[C@H](CCCCN)NC(=O)[C@H](CCC(=O)O)NC(=O)CC[C@H](NC(=O)CCCCCCCCCCCCCCCCCCC(=O)O)C(=O)O)CSCSC[C@@H](C(=O)N2CCC[C@H]2C(=O)N[C@@H](CO)C(=O)N[C@@H](Cc2ccccc2)C(=O)N[C@@H](CCCNC(=N)N)C(=O)N[C@@H](Cc2c[nH]cn2)C(=O)NCC(=O)NCC(=O)N2CCC[C@H]2C(=O)N[C@@H](CO)C(=O)N[C@@H](CO)C(=O)NCC(=O)N[C@@H](C)C(=O)N2CCC[C@H]2C(=O)N2CCC[C@H]2C(=O)N2CCC[C@H]2C(=O)N[C@@H](CO)C(N)=O)NC(=O)CNC(=O)[C@H](CC(C)C)NC(=O)CNC(=O)[C@H](CO)NC(=O)[C@H](Cc2ccc(O)cc2)NC(=O)[C@H](Cc2c[nH]cn2)NC(=O)CNC1=O [Example 56] | -2.8 | -0.66 | -0.65 | -0.51 | -1.82 | 1.83 | 10.57 | 12.11 | 17.03 | 16.59 | 11.66 | 11.45 | 9.32 | 9.31 | 7.36 | 1.99 | increased net cGMP levels | 0.187 | 36
